Experimental data taken from paper PMC6915728 (Nature Communications, 2019).
Where two headings read alike, the source gives them in different places. Ends that are not written are not given here.

Columns and labels:
[1] = tested on: E. coli BW25113 overexpression strains (ASKA plasmids); test: Minimum inhibitory concentration (MIC), serial broth dilution, single-gene overexpression strains vs empty-vector control; type: cell-based, Escherichia coli; conditions: broth dilution, MS medium, 100 µM IPTG, 30 °C, 20-24 h, OD600, 3 replicates
Procedure: Minimum inhibitory concentrations (MIC) were determined with a standard serial broth dilution technique with a minor modification. Specifically, instead of a two-fold dilution series, smaller AMP concentration steps were used (typically 1.2-fold) for two reasons. […] Second, gene overexpressions caused typically only small changes in the MICs of AMPs and therefore higher resolution was required. The protocol was as follows. From a stock solution of an AMP, 12-steps serial dilution was prepared in fresh MS medium in 96-well microtiter plates. Each AMP was represented in 11 different concentrations (3 wells per AMP concentration per strain). Three wells contained only medium to check the growth in the absence of AMP. After overnight growth in MS medium supplemented with chloramphenicol, bacterial strains were diluted 20-fold into fresh MS medium and grown until the cell density reached OD600 ~1. Cells were induced by 100 µM of IPTG and incubated for 1 h at 30 °C with continuous shaking at 300 rpm. Following incubation, approximately half-million cells were inoculated into the wells of the 96-well microtiter plate with a 96‐pin replicator. We used three independent replicates for each strain and the corresponding control. Two rows in the 96-well plate contained only MS medium in order to obtain the background OD value of the medium. Plates were incubated at 30 °C with continuous shaking at 300 rpm. After 20–24 h of incubation, OD600 values were measured in a microplate reader (Biotek Synergy 2).

[2] = tested on: E. coli K12 BW25113 carrying the pooled ASKA overexpression plasmid library (~4400 ORFs); test: Chemical-genetic profiling: pooled competitive growth of the ASKA gene-overexpression library with and without AMP, deep sequencing readout; type: cell-based, Escherichia coli; conditions: overexpressed gene aaaD; presence vs absence of AMP; average of biological replicates
Source text: We generated chemical-genetic interaction profiles for a diverse set of AMPs (Table 1) by screening them against a comprehensive library of gene overexpressions in E. coli[21]. Increasing gene dosage is a widely applied approach to reveal the targets of small-molecule antibiotics[22],[23]. It also informs on the ‘latent resistome’, that is, the collection of genes where a change from native expression level enhances resistance to a particular drug[24]. We applied a sensitive competition assay by monitoring growth of a pooled plasmid library, overexpressing all the E. coli ORFs (Fig. 1a), as we reported earlier. Specifically, E. coli cells carrying the pooled plasmid collection were grown in the presence or absence of one of the 15 AMPs tested, at a sub-inhibitory concentration that increased the doubling time of the whole population by 2-fold. Following 12 generations of growth, the plasmid pool was isolated from each selection and the relative abundance of each plasmid was determined by a deep sequencing readout (see Methods).
We carried out chemical-genetic profiling to determine the impact of the overexpression of each E. coli ORF on bacterial susceptibility to each of the 15 different AMPs. To this end, we used the complete set of E. coli K-12 Open Reading Frame Archive (ASKA) plasmid library (GFP minus) where each E. coli ORF is cloned into a high copy number expression plasmid (pCA24N-ORFGFP(-)). Prior to screening, the ASKA library was grown in the original host strain E. coli K-12 AG1 in 96-well plates (growth conditions: 37 °C, 280 rpm, LB medium). An equal aliquot of each member of the ASKA library (each well of the 96-well plates) was pooled together and the plasmid DNA (pCA24N-ORF-GFP(-)) was isolated and transformed into E. coli K12 BW25113 strain[51]. To obtain a negative control strain not having any overexpressed gene, the plasmid without a cloned ORF (pCA24N-noORF) was also transformed into the same E. coli strain. Then, on the pooled collection, we applied a previously reported competitive growth assay. Specifically, the pooled overexpression library and the control strain were grown in parallel in MS medium supplemented with 20 µg per ml chloramphenicol and the overexpression was induced by 100 µM isopropyl-ß-D-thiogalactopyranoside (IPTG). After 1 h induction, ~5 × 10^5 bacterial cells from the library were inoculated into each well of a 96-well microtiter plate containing a concentration gradient of an AMP in the MS medium supplemented with 20 µg per ml chloramphenicol and 100 µM IPTG. At the same time, both the library and the control strain with the empty plasmid were grown in the absence of any AMPs. We took special care to grow both of these samples in the exact same conditions as the samples in the presence of AMPs. Bacterial growth was monitored in a microplate reader (Biotek Synergy 2) for 24 h. At the end of the exponential growth phase, we selected those wells in which the doubling time of the cell population was increased by 2-fold. Then, from these wells, cells were split into four equal proportion and each was transferred into 20 mL of MS medium supplemented with the corresponding AMP in four different concentrations in the range that slowed down growth by two-fold in the microtitre plate. […] The rationale for this 2-step process was to maintain competition in exponential phase for 12 generations of growth, efficiently control the growth rate in a reproducible manner and obtain the plasmid pool with standard DNA isolation protocol (innuPREP plasmid mini Kit, Analytik Jena AG) in a yield that is enough for the downstream analysis. The cultures were vigorously shaken along the entire protocol to make sure that the cultures are completely homogeneous and therefore biasing interactions between clones (such as trans-resistance) was minimized. […]

[3] = tested on: E. coli gene overexpression; conditions: gene prfA overexpressed; ref 11 (Matsumoto et al. 2017); cited from earlier work
Source text: Supplement 41467_2019_13618_MOESM1_ESM.docx, table 1: Supplementary Table 1. Collected examples of E. coli gene overexpression from the literature as a confirmation of our chemical-genetic screen results. | column: Overexpression phenotype

[4] = tested on: bacterial species in which the gene showed activity; conditions: cited from earlier work

Q: Which “Relative MIC” value ([1]; overexpression strain cvpA, MIC of overexpression strain / MIC of empty-plasmid control) does the source give for “GNNRPVYIPQPRPPHPRL [AP, Apidaecin IB, antimicrobial peptide, source Apis mellifera L; cluster C3]” here?
A: Its value is 0.64.

Q: And the “Relative MIC” value ([1]; overexpression strain gadW, MIC of overexpression strain / MIC of empty-plasmid control)?
A: The value was 2.5.

Q: What about the “Relative MIC” value ([1]; overexpression strain lptB, MIC of overexpression strain / MIC of empty-plasmid control) of the same substance?
A: The value was 0.64.

Q: And the “Relative MIC” value ([1]; overexpression strain mlaD, MIC of the overexpression strain / MIC of the control strain (wild-type carrying the empty plasmid))?
A: Its value is 0.6.

Q: And the Chemical-genetic score [2]?
A: The Chemical-genetic score was -0.578 log2 fold change.

Q: What about the “Overexpression phenotype, Literature” value [3] of the same substance?
A: The value was “Resistance^11”.

Q: Which results are given for “gallidermin (IASKFLCTPGCAKTGSFNSYCC; also: lantibiotic, thioether rings, places not given here; UniProt P21838 31-52, looked up)”?
A: Gene that modulates bacterial susceptibility to the AMP ([4]; Staphylococcus aureus, Staphylococcus xylosus, ref http://www.jbc.org/content/274/13/8405.full.pdf): dltA (dlt operon); Gene that modulates bacterial susceptibility to the AMP ([4]; Staphylococcus epidermidis, ref http://jb.asm.org/content/178/2/531.full.pdf, https://www.ncbi.nlm.nih.gov/pmc/articles/PMC4239024/): epiE, epiF, epiG

Q: With human beta-defensin-2 as the substance, how does the “Gene that modulates bacterial susceptibility to the AMP” value ([4]; Salmonella enterica serovar Typhimurium, ref http://www.microbiologyresearch.org/docserver/fulltext/micro/154/2/666.pdf?expires=1487718158&id=id&accname=guest&checksum=D8B884D02A8B2A8619216A48E0826377) read?
A: The value was “yejA”.

Q: What does the source list for human neutrophil peptide-1?
A: Gene that modulates bacterial susceptibility to the AMP ([4]; Klebsiella pneumoniae, ref http://www.ncbi.nlm.nih.gov/pmc/articles/PMC2798511/): acrB; Gene that modulates bacterial susceptibility to the AMP ([4]; Salmonella typhimurium, Escherichia coli, ref https://www.ncbi.nlm.nih.gov/pmc/articles/PMC3037666/, https://www.ncbi.nlm.nih.gov/pmc/articles/PMC4808223/): amiA, amiC
